# In US20210002725A1, “METHODS FOR THE DIAGNOSIS OF METABOLIC DISORDERS USING EPIMETABOLIC SHIFTERS, MULTIDIMENSIONAL INTRACELLULAR MOLECULES, OR ENVIRONMENTAL INFLUENCES” (Berg LLC, priority 2009, published 2021):
# Columns and labels:
# [1] = tested on: HASMC cells; test: Mitochondria PCR arrays in cell model for diabetes; assay type: cell-based, human; conditions: HASMC-(H) 22 mM glucose
# Description: (§1) The HK-2 and HASMC cells are normally maintained in culture at 5.5 mM glucose, which is a concentration that corresponds to a range considered normal in human blood. However, in order to simulate a diabetic environment, both cell lines were subsequently maintained at 22 mM glucose, which corresponds to the range observed in human blood associated with chronic hyperglycemia. The cells were subsequently allowed to propagate over 3 passages so that the intracellular regulation processes were functionally adapted to mimic a diabetic state. The choice of cell line was based on the physiologic influence of diabetes on renal dysfunction and progression to end-stage renal disease (ESRD) in addition to the progressive pathophysiology of a compromised cardiovascular function.
# (§2) Differential expression of mitochondrial genes in diabetes was assayed using the mitochondria arrays (Cat#PAHS 087E, SABisociences Frederick Md.).
# [2] = tested on: HK-2 cells; test: Mitochondria PCR arrays in cell model for diabetes; assay type: cell-based, human; conditions: HK-2(H) 22 mM glucose
# Description: as §1, §2
# [3] = tested on: HDFa cells; test: SeaHorse XF analyzer OCR and ECAR; assay type: cell-based, human; conditions: normoxic and hypoxic conditions, 5.5 mM and 22 mM glucose
# Source text: (§3) Environmental influencers (e.g., MIMs or Epi-shifters) may also be identified by changes in cellular energetics. One example of the measurement of cellular energetics are the real-time measures of the consumption of molecular oxygen and/or the change in pH of the media of a cell culture. For example, the ability of a potential epi-shifter to modulate the metabolic state of a cell may be analyzed using, for example, the XF24 Analyzer (Seahorse, Inc.). This technology allows for real time detection of oxygen and pH changes in a monolayer of cells in order to evaluate the bioenergetics of a cell microenvironment. The XF24 Analyzer measures and compares the rates of oxygen consumption (OCR), which is a measure of aerobic metabolism, and extracellular acidification (ECAR), which is a measure of glycolysis, both key indicators of cellular energetics.
# (§4) (SeaHorse Biosciences Inc, North Billerica, Mass.).
# (§5) In this experiment, the OCR and extracellular acidification rate (ECAR) in normal cells lines were obtained in the presence and absence of CoQ10 to determine baseline values. It was observed that in its native nutrient environment, the basal OCR rates in normal cells lines are different, and are usually a function of the physiological roles of the cells in the body.
# For example, one set of experiments were conducted using the non-cancerous cell line HDFa, which is a human adult dermal fibroblast cell line. Fibroblasts are cells that primarily synthesize and secrete extracellular matrix (ECM) components and collagen that form the structural framework (stroma) for tissues. In addition, fibroblasts are known to serve as tissue ambassadors of numerous functions such as wound healing and localized immnomodulation. Under normal physiological conditions, energy requirements in normal fibroblasts are met using a combination of glycolysis and oxidative phosphorylation—the glycolysis providing the necessary nutrients for synthesis of ECM.
# FIGS. 29 and 30 describe the OCR in HDFa and HASMC cells grown in physiologically normal glucose (about 4.6 mM) and high glucose (hyperglycemic) conditions.
# [4] = tested on: HepG2 (liver cancer) cells; test: Real-time PCR Apoptosis Array; assay type: cell-based
# [5] = tested on: SK-MEL-28 mitochondria; test: LC-MS/MS quantification of Q10 and Q10H2 in mitochondrial enriched samples; assay type: cell-based; conditions: for Peak Area Q10: 20% injection
# Description: Ten μl of each sample was injected.
# [6] = tested on: SCC cells; test: Real-time PCR Heat Shock Protein Array; assay type: cell-based; conditions: 100 μM Q10
# Source text: The control cells were untreated cells.
# Heat Shock Arrays were run for SCC cells and the data of regulated genes is summarized below in Table 13.
# [7] = tested on: HASMC cells; test: SeaHorse XF analyzer OCR and ECAR; assay type: cell-based, human; conditions: hyperglycemic cells in hypoxic conditions
# Source text: as §3, §4
# as §5, with “body. […]” for “body.”
smiles,measurement,setting,value
"COC1=C(OC)C(=O)C(C/C=C(\C)CC/C=C(\C)CC/C=C(\C)CC/C=C(\C)CC/C=C(\C)CC/C=C(\C)CC/C=C(\C)CC/C=C(\C)CC/C=C(\C)CCC=C(C)C)=C(C)C1=O [Q10, Coenzyme Q10]",BCL2L1 gene regulation (mitochondria array),[1]; 50 uM Coenzyme Q10,−2.7863
same,MFN1 gene regulation (mitochondria array),[1]; 50 uM Coenzyme Q10,−1.2585
same,PMAIP1 gene regulation (mitochondria array),[1]; 50 uM Coenzyme Q10,−6.8132
same,SLC25A1 gene regulation (mitochondria array),[1]; 50 uM Coenzyme Q10,−1.834
same,SLC25A13 gene regulation (mitochondria array),[1]; 50 uM Coenzyme Q10,−1.5
same,SLC25A19 gene regulation (mitochondria array),[1]; 50 uM Coenzyme Q10,−1.4257
same,SLC25A22 gene regulation (mitochondria array),[1]; 50 uM Coenzyme Q10,−1.9839
same,TIMM44 gene regulation (mitochondria array),[1]; 50 uM Coenzyme Q10,−2.3214
same,TOMM40 gene regulation (mitochondria array),[1]; 50 uM Coenzyme Q10,−2.0922
same,TSPO gene regulation (mitochondria array),[1]; 50 uM Coenzyme Q10,−2.0586
same,BCL2L1 gene regulation (mitochondria array),[1]; 100 μM Coenzyme Q10,−2.3001
same,MFN1 gene regulation (mitochondria array),[1]; 100 μM Coenzyme Q10,−2.2632
same,PMAIP1 gene regulation (mitochondria array),[1]; 100 μM Coenzyme Q10,−4.352
same,SLC25A1 gene regulation (mitochondria array),[1]; 100 μM Coenzyme Q10,−3.0001
same,SLC25A13 gene regulation (mitochondria array),[1]; 100 μM Coenzyme Q10,−1.5245
same,SLC25A19 gene regulation (mitochondria array),[1]; 100 μM Coenzyme Q10,−2.1214
same,SLC25A22 gene regulation (mitochondria array),[1]; 100 μM Coenzyme Q10,−10.3747
same,TIMM44 gene regulation (mitochondria array),[1]; 100 μM Coenzyme Q10,−1.9931
same,TOMM40 gene regulation (mitochondria array),[1]; 100 μM Coenzyme Q10,−2.2684
same,TSPO gene regulation (mitochondria array),[1]; 100 μM Coenzyme Q10,−2.3647
same,GRPEL1 gene regulation (mitochondria array),[2]; 50 μM Coenzyme Q10,−2.6512
same,SLC25A3 gene regulation (mitochondria array),[2]; 50 μM Coenzyme Q10,−8.2059
same,TOMM40 gene regulation (mitochondria array),[2]; 50 μM Coenzyme Q10,−1.1567
same,TSPO gene regulation (mitochondria array),[2]; 50 μM Coenzyme Q10,−6.7583
same,GRPEL1 gene regulation (mitochondria array),[2]; 100 μM Coenzyme Q10,−1.933
same,SLC25A3 gene regulation (mitochondria array),[2]; 100 μM Coenzyme Q10,−1.6984
same,TOMM40 gene regulation (mitochondria array),[2]; 100 μM Coenzyme Q10,−1.9509
same,TSPO gene regulation (mitochondria array),[2]; 100 μM Coenzyme Q10,−2.1104
same,ECAR values,[3],minimal influence on ECAR values
same,genes regulated in the Apoptosis Arrays,[4]; 100 μM,BAG1 and CASP9 and TNFRSF1A
same,BAG1 downregulation over control,"[4]; 100 uM Q10, 16 hours",approximately 6 fold
same,CASP9 upregulation over control,"[4]; 100 uM Q10, 16 hours",approximately 61 fold
same,TNFRSF1A downregulation over control,"[4]; 100 uM Q10, 16 hours",~4 fold
same,BAG1 upregulation over control,"[4]; 100 uM Q10, 48 hours",~1 fold
same,CASP9 upregulation over control,"[4]; 100 uM Q10, 48 hours",approximately 55 fold
same,TNFRSF1A upregulation over control,"[4]; 100 uM Q10, 48 hours",~1 fold
same,increase in mitochondrial Q10 levels,"[5]; 100 μM Q10, 19 hours, vs untreated",~3 fold
same,increase in mitochondrial Q10H2 levels,"[5]; 100 μM Q10, 48 hour sample, near detection limit",3 fold
same,Peak Area Q10,"[5]; 100 μM Q10 in the media, 6 hr",25427
same,Peak Area Q10,"[5]; 100 μM Q10 in the media, 19 hr",59164
same,Q10H2 (reduced form) in mitochondrial enriched sample,"[5]; 100 μM Q10 in the media, 48 hr",0.28 ng/Sample
same,Peak Area Q10,"[5]; 100 μM Q10 in the media, 48 hr",164496
same,form of Q10 in mitochondria (oxidized vs reduced),[5]; exogenous addition of Q10 to the media,maintained in the supplied oxidized form
same,Regulation (mRNA) at 6 hours,[6],Down regulated
same,Regulation (mRNA) at 24 hours,[6],Down regulated
same,ECAR rates,[7],downward trend
